Results on 2 molecules are retold here after US7521471B2, “4-cyanopyrazole-3-carboxamide derivatives, preparation and application thereof” (Sanofi-Aventis, priority 2003, dated 2009).

For orientation: ED50 means the dose that gives a 50% effect, or the effect in half of the subjects.

One assay concerns the target T1, CB1 receptors (Mus musculus, UniProt P47746).
T1 construct: from tissue
Kind of assay: in vivo test (binding ex vivo) in mice after intravenous and/or oral administration. The procedure:
The compounds according to the invention were tested in vivo (binding ex vivo) in mice after intravenous and/or oral administration, according to the experimental conditions described by Rinaldi-Carmona et al. (J. Pharmacol. Exp., 1998, 284, 644-650). […] By the oral route, compounds 2, 3, 4, 11 and 12 have an ED50 of between 1 and 20 mg/kg for the CB1 receptors.

For assay [1], the target named is CB1 cannabinoid receptors (Homo sapiens, UniProt P21554). The settings on record: cited from earlier work.
Chain of CB1 cannabinoid receptors (P21554 whole entry): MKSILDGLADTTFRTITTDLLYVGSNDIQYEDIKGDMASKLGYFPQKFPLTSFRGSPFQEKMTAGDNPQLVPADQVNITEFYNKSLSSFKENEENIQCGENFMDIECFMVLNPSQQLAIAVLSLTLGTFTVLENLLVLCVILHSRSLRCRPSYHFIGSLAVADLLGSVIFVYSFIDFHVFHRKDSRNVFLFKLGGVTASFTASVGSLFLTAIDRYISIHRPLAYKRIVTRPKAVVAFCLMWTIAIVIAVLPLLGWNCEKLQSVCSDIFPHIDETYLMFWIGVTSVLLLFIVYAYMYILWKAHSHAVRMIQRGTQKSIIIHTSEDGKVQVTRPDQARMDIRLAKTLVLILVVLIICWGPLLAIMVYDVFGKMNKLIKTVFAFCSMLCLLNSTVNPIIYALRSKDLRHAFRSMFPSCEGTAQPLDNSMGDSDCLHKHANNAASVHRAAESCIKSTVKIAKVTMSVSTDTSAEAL

T1 sequence (P47746 whole entry): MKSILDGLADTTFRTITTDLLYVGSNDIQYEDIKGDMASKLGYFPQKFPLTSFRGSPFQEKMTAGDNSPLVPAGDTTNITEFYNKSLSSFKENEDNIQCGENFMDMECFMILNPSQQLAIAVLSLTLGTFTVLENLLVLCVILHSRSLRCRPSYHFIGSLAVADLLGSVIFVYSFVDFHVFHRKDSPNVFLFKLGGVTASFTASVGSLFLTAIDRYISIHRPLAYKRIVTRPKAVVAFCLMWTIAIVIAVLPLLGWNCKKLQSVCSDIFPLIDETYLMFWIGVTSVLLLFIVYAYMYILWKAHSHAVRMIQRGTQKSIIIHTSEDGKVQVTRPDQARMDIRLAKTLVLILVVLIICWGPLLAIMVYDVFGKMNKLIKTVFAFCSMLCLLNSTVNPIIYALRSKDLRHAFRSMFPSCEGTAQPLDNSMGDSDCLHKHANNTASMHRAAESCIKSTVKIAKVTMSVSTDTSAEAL

The molecule `CC(C)(C)NC(=O)c1nn(-c2ccc(Cl)cc2Cl)c(-c2ccc(Br)cc2)c1C#N` [Compound 12, 5-(4-Bromophenyl)-4-cyano-1-(2,4-dichlorophenyl)-N-tert-butyl-1H-pyrazole-3-carboxamide] returned an ED50 on CB1 receptors of 1 to 20 mg/kg. As to `COc1ccc(-c2c(C#N)c(C(=O)Nc3ccccc3)nn2-c2ccccc2Cl)cc1` [N-phenyl-1-(2-chlorophenyl)-4-cyano-5-(4-methoxyphenyl)-1H-pyrazole-3-carboxamide], the “properties for the CB1 cannabinoid receptors” value in assay [1] is “inverse agonist properties”.
